Test results taken from patent US9179674B2, “Macrocyclic picolinamide compounds with fungicidal activity” (DOW AGROSCIENCES LLC, priority 2013, dated 2015).
Read-outs that look alike come from different tables or passages of the source.

Legend:
[1] = tested on: Mycosphaerella graminicola; Anamorph: Septoria tritici; assay: Leaf Blotch of Wheat fungicidal activity (SEPTTR); format: in vivo; conditions: Zymoseptoria tritici; for pest or weed control at 100 ppm: rate 100 ppm; for pest or weed control at 121.5 g/ha: rate 121.5 g/H
Method in brief: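 Acetone solutions diluted with nine volumes of water containing 110 ppm Triton X-100, sprayed to run-off on first-leaf wheat seedlings (Yuma), inoculated with S. tritici before or after treatment. Plants held in dew chambers, then in a 20 °C greenhouse. Disease severity (0–100%) scored when untreated plants fully symptomatic; % control relative to untreated.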

Puccinia triticina = assay: Wheat Brown Rust fungicidal activity (PUCCRT); format: in vivo; conditions: Puccinia triticina; for pest or weed control at 100 ppm: rate 100 ppm; for pest or weed control at 121.5 g/ha: rate 121.5 g/H
Method in brief: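 Yuma wheat seedlings at first-leaf stage sprayed to run-off (acetone solution in water with 110 ppm Triton X-100) or track-sprayed as EC with 0.1% Trycol 5941; inoculated with P. triticina spores before or after treatment. Overnight dark dew at 22° C., then greenhouse 24° C.; disease severity 0–100% gives percent control vs untreated.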

[2] = 24 h, 1 Day Protectant, read-out: Disease control SEPTTR 1DP
[3] = 72 h, 3 Day Curative, read-out: Disease control SEPTTR 3DC
[4] = 24 h, 1 Day Protectant, read-out: Disease control PUCCRT 1DP
[5] = 72 h, 3 Day Curative, read-out: Disease control PUCCRT 3DC

Compound	pest or weed control at 100 ppm [1, 2] [%]	pest or weed control at 100 ppm [1, 3] [%]	pest or weed control at 100 ppm (Puccinia triticina; [4]) [%]	pest or weed control at 100 ppm (Puccinia triticina; [5]) [%]	melting point [°C]	pest or weed control at 121.5 g/ha [1, 2] [%]	pest or weed control at 121.5 g/ha [1, 3] [%]	pest or weed control at 121.5 g/ha (Puccinia triticina; [4]) [%]	pest or weed control at 121.5 g/ha (Puccinia triticina; [5]) [%]
CCCCCO[C@@H]1[C@@H](CC2CCCC2)COC[C@H](NC(=O)c2nccc(OC)c2O)C(=O)O[C@H]1C [Compound F47]	80 to 100	80 to 100	80 to 100	80 to 100	109 to 111	–	–	–	–
C[C@@H]1OC(=O)[C@@H](N(C(=O)OC(C)(C)C)C(=O)OC(C)(C)C)COC[C@H](Cc2ccc(F)cc2)[C@H]1OC(=O)C1CC1 [Compound F136]	–	–	–	–	131 to 133	–	–	–	–
CCCCCO[C@@H]1[C@@H](Cc2ccc(Cl)cc2Cl)COC[C@H](NC(=O)c2nccc(OC)c2OC(C)=O)C(=O)O[C@H]1C [Compound F75]	80 to 100	80 to 100	80 to 100	80 to 100	55 to 59	80 to 100	80 to 100	80 to 100	0 to 80
COc1ccnc(C(=O)N[C@H]2COC[C@H](Cc3cccc4ccccc34)[C@@H](OCCCC(F)(F)F)[C@H](C)OC2=O)c1O [Compound F6]	80 to 100	0 to 80	0 to 80	–	118 to 122	–	–	–	–
COc1ccnc(C(=O)N[C@H]2COC[C@H](Cc3ccc(Cl)cc3Cl)[C@@H](OC(=O)C(C)C)[C@H](C)OC2=O)c1OCOC(=O)C(C)C [Compound F119]	80 to 100	80 to 100	80 to 100	80 to 100	57 to 60	–	–	–	–
COc1ccnc(C(=O)N[C@H]2COC[C@H](Cc3ccc(C)cc3)[C@@H](OC(=O)C(C)C)[C@H](C)OC2=O)c1OC(C)=O [Compound F54]	80 to 100	80 to 100	80 to 100	80 to 100	88 to 93	80 to 100	80 to 100	80 to 100	0 to 80
COc1ccnc(C(=O)N[C@H]2COC[C@H](Cc3ccc(F)cc3)[C@@H](OC(=O)C(C)C)[C@H](C)OC2=O)c1OC(C)=O [Compound F56]	80 to 100	80 to 100	80 to 100	80 to 100	74 to 79	–	–	–	–
COc1ccnc(C(=O)N[C@H]2COC[C@H](Cc3cccc4ccccc34)[C@@H](OCCCC(F)(F)F)[C@H](C)OC2=O)c1OCOC(C)=O [Compound F84]	80 to 100	–	80 to 100	80 to 100	61 to 68	–	–	–	–
CCCCCO[C@@H]1[C@@H](Cc2ccc(C)cc2)COC[C@H](N(C(=O)OC(C)(C)C)C(=O)OC(C)(C)C)C(=O)O[C@H]1C [Compound F134]	–	–	–	–	100 to 103	–	–	–	–
COc1ccnc(C(=O)N[C@H]2COC[C@H](CC3CCCC3)[C@@H](OCC(C)C)[C@H](C)OC2=O)c1OC(C)=O [Compound F78]	80 to 100	80 to 100	80 to 100	80 to 100	56 to 59	–	–	–	–
COc1ccnc(C(=O)N[C@H]2COC[C@H](Cc3cccc4ccccc34)[C@@H](Oc3ccc(C)cc3)[C@H](C)OC2=O)c1OCOC(C)=O [Compound F85]	80 to 100	0 to 80	80 to 100	0 to 80	83 to 88	–	–	–	–
COc1ccnc(C(=O)N[C@H]2COC[C@H](CC3CCCC3)[C@@H](OC(=O)C(C)C)[C@H](C)OC2=O)c1O [Compound F45]	80 to 100	80 to 100	80 to 100	0 to 80	55 to 59	–	–	–	–
CCCCCO[C@@H]1[C@@H](CCc2ccccc2)COC[C@H](NC(=O)c2nccc(OC)c2O)C(=O)O[C@H]1C [Compound F3]	80 to 100	80 to 100	80 to 100	80 to 100	96 to 98	–	–	–	–
COc1ccnc(C(=O)N[C@H]2COC[C@H](CCc3ccccc3)[C@@H](OC3CCCC3)[C@H](C)OC2=O)c1O [Compound F1]	80 to 100	0 to 80	80 to 100	80 to 100	51 to 58	–	–	–	–
COc1ccnc(C(=O)N[C@H]2COC[C@H](CCc3ccccc3)[C@@H](OCC(C)C)[C@H](C)OC2=O)c1OC(C)=O [Compound F50]	80 to 100	80 to 100	80 to 100	80 to 100	61 to 65	–	–	–	–
COc1ccnc(C(=O)N[C@H]2COC[C@H](Cc3ccc(Cl)cc3Cl)[C@@H](Oc3ccc(C)cc3)[C@H](C)OC2=O)c1O [Compound F44]	–	–	80 to 100	–	81 to 85	–	–	–	–
COc1ccnc(C(=O)N[C@H]2COC[C@H](CC3CCCC3)[C@@H](OCC(C)C)[C@H](C)OC2=O)c1O [Compound F46]	80 to 100	80 to 100	80 to 100	80 to 100	132 to 134	–	–	–	–
CCCCCO[C@@H]1[C@@H](Cc2cccc3ccccc23)COC[C@H](NC(=O)c2nccc(OC)c2OC(C)=O)C(=O)O[C@H]1C [Compound F52]	80 to 100	80 to 100	80 to 100	0 to 80	85 to 91	–	–	–	–
CCCCCO[C@@H]1[C@@H](Cc2cccc3ccccc23)COC[C@H](NC(=O)c2nccc(OC)c2O)C(=O)O[C@H]1C [Compound F7]	80 to 100	0 to 80	80 to 100	0 to 80	116 to 120	–	–	–	–
CC(C)CO[C@@H]1[C@@H](Cc2cccc3ccccc23)COC[C@H](N(C(=O)OC(C)(C)C)C(=O)OC(C)(C)C)C(=O)O[C@H]1C [Compound F133]	–	–	–	–	57 to 63	–	–	–	–
COc1ccnc(C(=O)N[C@H]2COC[C@H](Cc3ccc(F)cc3)[C@@H](OC(=O)C(C)C)[C@H](C)OC2=O)c1OCOC(C)=O [Compound F91]	80 to 100	80 to 100	80 to 100	80 to 100	52 to 56	–	–	–	–
COc1ccnc(C(=O)N[C@H]2COC[C@H](Cc3ccc(F)cc3)[C@@H](OC(=O)C3CC3)[C@H](C)OC2=O)c1OCOC(C)=O [Compound F90]	80 to 100	80 to 100	80 to 100	80 to 100	59 to 64	–	–	–	–
CCCCCO[C@@H]1[C@@H](CC2CCCC2)COC[C@H](NC(=O)c2nccc(OC)c2OC(C)=O)C(=O)O[C@H]1C [Compound F79]	80 to 100	80 to 100	80 to 100	80 to 100	46 to 51	80 to 100	80 to 100	80 to 100	0 to 80
COc1ccnc(C(=O)N[C@H]2COC[C@H](CCc3ccccc3)[C@@H](OCCCC(F)(F)F)[C@H](C)OC2=O)c1OC(C)=O [Compound F49]	80 to 100	80 to 100	80 to 100	80 to 100	59 to 64	80 to 100	80 to 100	80 to 100	0 to 80
CC(C)C(=O)O[C@@H]1[C@@H](Cc2cccc3ccccc23)COC[C@H](N(C(=O)OC(C)(C)C)C(=O)OC(C)(C)C)C(=O)O[C@H]1C [Compound F128, [(3S,6S,7R,8S)-3-[bis(tert-butoxycarbonyl)amino]-6-methyl-8-(1-naphthylmethyl)-4-oxo-1,5-dioxonan-7-yl]2-methylpropanoate]	–	–	–	–	130 to 132	–	–	–	–
COc1ccnc(C(=O)N[C@H]2COC[C@H](Cc3ccc(Cl)cc3Cl)[C@@H](Oc3ccc(C)cc3)[C@H](C)OC2=O)c1OCOC(C)=O [Compound F113]	–	–	–	–	70 to 74	–	–	80 to 100	–
Cc1ccc(C[C@H]2COC[C@H](N)C(=O)O[C@@H](C)[C@@H]2OCC(C)C)cc1.Cl	–	–	–	–	81 to 84	–	–	–	–
C[C@@H]1OC(=O)[C@@H](N(C(=O)OC(C)(C)C)C(=O)OC(C)(C)C)COC[C@H](Cc2cccc3ccccc23)[C@H]1OC1CCCC1 [Compound F132, tert-butyl N-tert-butoxycarbonyl-N-[(3S,7S,8R,9S)-8-(cyclopentoxy)-9-methyl-7-(1-naphthylmethyl)-2-oxo-1,5-dioxonan-3-yl]carbamate]	–	–	–	–	49 to 55	–	–	–	–
